Experimental data taken from US20070192880A1, “Horming response element binding transregulators” (UNIVERSITY OF ROCHESTER, priority 2003, published 2007).
“Also recorded” adds a separate entry of the source.

Experiments:
[1] = system: human Catepsin D (CatD) gene promoter; experiment: CatD promoter luciferase reporter, COS-1 cells; format: cell-based, African green monkey; details: without or with 10^−9 M E2 or 10^−7 M 4-OHT, 24 h
Excerpt: Transfection and processing of cells were done as described in legend of FIG. 7. The reporter vector contains the human Catepsin D (CatD) gene promoter that drives the firefly luciferase cDNA expression. The mean±SEM indicates three independent experiments performed in duplicate.
(§1) The CatD and C3 promoters were generated by PCR using pCD3542 (Augereau P. et al. Mol Endocr 8:693-703) and pC3TI (Fan JD. (1996) Mol Endocrinol 10: 1605-16) reporter plasmids as templates, respectively. A fragment of 730 bp [−750 to −22, +1 is referred to the first ATG, (Parker, M. G. (1998) Biochem Soc Symp 63, 45-50)] of the promoter region of CatD gene or 580 bp [−516 to +61, +1 as the transcription start site) of the C3 gene (Tzukerman, M. T. et al. (1994) Mol Endocrinol 8, 21-30)] was generated. PCR fragments were then inserted into the reporter plasmid pGL3-Basic linearized with appropriate restriction enzymes.
(§2) COS-1 cells were transfected with a reporter construct bearing CatD or C3 promoter together with the expression vector bearing none (V, as control), cDNA for ERα or an EBR. Following a transfection, cells were treated without or with 10^−9 M E2 or 10^−7 M 4-OHT for 24 h.

MCF-7 cells = experiment: cell cycle analysis (FACS, EGFP-positive cells), transfected MCF-7 cells; format: cell-based, human
Protocol: (§3) Transfection and processing of cells were done as described in legend of FIG. 5.
MDA-MB-231 and MCF-7 cells were grown as described above. Cells were then transiently transfected with the EGFP vector bearing a cDNA for ERα, CDC or an EBA. Twenty-four hours after transfection, cells were collected by trypsinization, washed in phosphate buffered saline (PBS) and fixed with 1% paraformaldehyde in PBS for one hour. Cells were permeabilized in 70% Ethanol overnight and stained with 50 μg/ml propidium iodide (PI, Sigma-Aldrich) for one hour for flow cytometry analysis. Samples were analyzed on a FACS EPICS Elite EPS flow cytometer (Coulter Corp., Hialeah, Fla.). The percentages of cells at G1 phase were assessed among treatment groups and expressed as percent change compared to cells transfected with EGFP vector bearing no cDNA.

human C3 gene promoter = experiment: C3 promoter luciferase reporter, COS-1 cells; format: cell-based, African green monkey
Excerpt: Transfection and processing of cells were done as described in legend of FIG. 7. Shown are the mean±SEM of three independent experiments performed in duplicate and expressed as fold changes compare to the parent expression vector (V), which was set to one.
as §1, §2

[2] = system: ERE-driven TATA box promoter; experiment: luciferase reporter, consensus ERE upstream of TATA box promoter, COS-1 cells; format: cell-based, African green monkey
Excerpt: Proteins were probed with a Flag antibody followed by a fluorescein-conjugated secondary antibody for visualization (FITC). DAPI staining indicates the nucleus. […] (*) denotes mutants with an impaired DNA binding finction, while VP16* depicts the activation function defective construct. The reporter plasmid contained either one (1× ERE) or two copies (2× ERE) of the consensus ERE in tandem located upstream of a simple promoter, TATA box, driving the expression of the firefly luciferase cDNA. The transfection efficiency was monitored by the co-expression of 0.5 ng of a reporter plasmid, pCMV-RL that drives the expression of Renilla luciferase cDNA. Cells were treated with or without 10^−9 M E2 for 24 h. The cell extracts were assayed for luciferase enzymes, and the normalized firefly/Renilla luciferase activities are presented as fold changes compare to the control, which was set to one. Shown are the mean±SEM of three independent experiments performed in duplicate.
Culturing and transfection of the mammalian COS-1 and […] MDA-MB-231 cells were described previously (Muyan, M. et al. (2001) Mol Cell Endocrinol 182,249-263; Yi, P. et al. (2002) Mol Endocrinol 16, 1810-1827), with the exceptions that 48 well cell culture plates were used and Trans-IT LTI transfection reagent (Mirus Corp., Madison, Wis.). […]

[3] = system: pS2, C3 and Oxytocin promoter constructs; experiment: pS2, C3 and Oxytocin promoter luciferase reporters, MCF-7 cells; format: cell-based, human; details: absence or presence of 10^−9 M E2, FIG. 6A
Protocol: as §3
(§4) Culturing and transfection of the mammalian COS-1 and […] MDA-MB-231 cells were described previously (Muyan, M. et al. (2001) Mol Cell Endocrinol 182,249-263; Yi, P. et al. (2002) Mol Endocrinol 16, 1810-1827), with the exceptions that 48 well cell culture plates were used and Trans-IT LTI transfection reagent (Mirus Corp., Madison, Wis.). Luciferase assays were performed with a Dual Luciferase Assay kit (Promega) according to the manufacture's recornmendations. Steroid hormones and 9-cis retinoic acid were purchased from Sigma-Aldrich (St. Louis, Mo.). For transfection of MDA-MB-231 and MCF-7 cells, the cells were incubated for three days in a phenol red-free DMEM supplemented with 10% charcoal-dextran treated fetal bovine serum (CD-FBS). Cells were transfected with appropriate expression vectors using Lipofectamine 2000 transfection reagent (Invitrogen).

RARα promoter = RARα promoter luciferase reporter, MCF-7 cells; format: cell-based, human; details: without or with 10^−9 M E2
Protocol: as §3, §4

In the case of 4-hydroxytamoxifen [Construct 4-OHT], the “effect on CatD promoter reporter enzyme activity” value [1] is reported as “did not alter the transcription of the reporter enzyme mediated by ERα; also recorded: prevented the E2-ERα complex-mediated augmentation”, the “cells accumulated in the G1 phase” value (MCF-7 cells; medium with untreated FBS, 4-OHT 10^−7 M) is reported as “increased the cell population in the G1 phase” and the “effect on C3 promoter reporter enzyme activity” value (human C3 gene promoter) is reported as “effectively decreased the transcription induction”.
With “VP16: activation domain of the herpes simplex virion protein VP16 alone, residues 403-490” the “effect on transcription from ERE-TATA reporter” value [2] was “did not alter the transcription”.
With C[C@]12CC[C@@H]3c4ccc(O)cc4CC[C@H]3[C@@H]1CC[C@@H]2O [Construct E2, estradiol 17β] the “reporter enzyme activity from pS2, C3 and Oxytocin promoter constructs” value [3] was “enhanced reporter enzyme activity”, the “G1/S phase transition / cell cycle progression” value (MCF-7 cells; charcoal-dextran treated FBS, E2 10^−9 M) was “enhanced the G1/S phase transition” and the “transcriptional response from the RARα promoter” value (RARα promoter) was “enhanced the reporter activity”.
